Experimental data reported in PubChem BioAssay AID330 (DTP/NCI, 2004).
Several values for one entry are separate records, joined by “and”; a condition that tells them apart may be missing. Equal entries are not always repeated. Inconclusive results and toxic doses are left out.

Tested on: P388 leukemia ip, CD2F1 mice, survival T/C
Experiment: NCI In Vivo Anticancer Drug Screen. Data for tumor model P388 Leukemia (intraperitoneal) in CD2F1 (CDF1) mice
Conditions: endpoint: median survival time, higher = longer survival
Method in brief: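 Mice carrying the transplanted tumor received test compound or vehicle. Survival was recorded in each group, and the value is the treated-group measurement divided by that of the vehicle-treated control group.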

[1] = dose: 12.5 mg/kg/injection, schedule: Q01DX009 (ip), vehicle: distilled water + Tween-80
[2] = dose: 25.0 mg/kg/injection, schedule: Q01DX009 (ip), vehicle: distilled water + Tween-80
[3] = dose: 50.0 mg/kg/injection, schedule: Q01DX005 (ip), vehicle: saline with Tween-80
[4] = dose: 100.0 mg/kg/injection, schedule: Q01DX005 (ip), vehicle: saline with Tween-80
[5] = dose: 12.5 mg/kg/injection, schedule: Q01DX009 (ip), vehicle: Klucel (hydroxypropylcellulose) (HPC)
[6] = dose: 25.0 mg/kg/injection, schedule: Q01DX009 (ip), vehicle: Klucel (hydroxypropylcellulose) (HPC)
[7] = dose: 50.0 mg/kg/injection, schedule: Q01DX009 (ip), vehicle: Klucel (hydroxypropylcellulose) (HPC)
[8] = dose: 100.0 mg/kg/injection, schedule: Q01DX009 (ip), vehicle: saline with Tween-80
[9] = dose: 200.0 mg/kg/injection, schedule: Q01DX009 (ip), vehicle: saline with Tween-80
[10] = dose: 25.0 mg/kg/injection, schedule: Q04DX003 (ip), vehicle: saline with Tween-80
[11] = dose: 50.0 mg/kg/injection, schedule: Q04DX003 (ip), vehicle: saline with Tween-80
[12] = dose: 100.0 mg/kg/injection, schedule: Q04DX003 (ip), vehicle: saline with Tween-80
[13] = dose: 200.0 mg/kg/injection, schedule: Q04DX003 (ip), vehicle: saline with Tween-80
[14] = dose: 400.0 mg/kg/injection, schedule: Q04DX003 (ip), vehicle: saline with Tween-80
[15] = dose: 25.0 mg/kg/injection, schedule: Q01DX009 (ip), vehicle: saline with Tween-80
[16] = dose: 100.0 mg/kg/injection, schedule: Q04DX002 (ip), vehicle: saline with Tween-80
[17] = dose: 200.0 mg/kg/injection, schedule: Q04DX002 (ip), vehicle: saline with Tween-80
[18] = dose: 400.0 mg/kg/injection, schedule: Q04DX002 (ip), vehicle: saline with Tween-80
[19] = dose: 50.0 mg/kg/injection, schedule: Q01DX009 (ip), vehicle: saline with Tween-80
[20] = dose: 50.0 mg/kg/injection, schedule: Q04DX003 (ip), vehicle: saline
[21] = dose: 100.0 mg/kg/injection, schedule: Q04DX003 (ip), vehicle: saline
[22] = dose: 200.0 mg/kg/injection, schedule: Q04DX003 (ip), vehicle: saline
[23] = dose: 400.0 mg/kg/injection, schedule: Q04DX003 (ip), vehicle: saline
[24] = dose: 50.0 mg/kg/injection, schedule: Q01DX005 (ip), vehicle: Klucel (hydroxypropylcellulose) (HPC)
[25] = dose: 100.0 mg/kg/injection, schedule: Q01DX005 (ip), vehicle: Klucel (hydroxypropylcellulose) (HPC)
[26] = dose: 200.0 mg/kg/injection, schedule: Q01DX005 (ip), vehicle: Klucel (hydroxypropylcellulose) (HPC)

CCN(CC)CCCC(C)Nc1cc(C)nc2c1ccc1c2ccc2c(NC(C)CCCN(CC)CC)cc(C)nc21 (stereo not given)
T/C [1]: 118 % of control
T/C [2]: 111 % of control

[N-]=[N+]=Nc1ccc(C(=O)ON2C(=O)CCC2=O)cc1
T/C [3]: 97 % of control
T/C [4]: 105 % of control
T/C (dose: 200.0 mg/kg/injection, schedule: Q01DX005 (ip), vehicle: saline with Tween-80): 119 % of control

C#CCOC(=O)Nc1nc2ccc(SC#N)cc2s1
T/C [5]: 104 % of control
T/C [6]: 107 % of control
T/C [7]: 107 % of control and 90 % of control

Nc1ccc(S(=O)(=O)c2ccc(NCNc3ccc(S(=O)(=O)c4ccc(N)cc4)cc3)cc2)cc1
T/C [8]: 94 % of control
T/C [9]: 91 % of control
T/C (dose: 400.0 mg/kg/injection, schedule: Q01DX009 (ip), vehicle: saline with Tween-80): 94 % of control

O=C(O)c1[nH]c(=O)[nH]c(=O)c1CO
T/C (dose: 6.25 mg/kg/injection, schedule: Q01DX009 (ip), vehicle: distilled water + Tween-80): 99 % of control
T/C [1]: 100 % of control
T/C [2]: 103 % of control
T/C (dose: 50.0 mg/kg/injection, schedule: Q01DX009 (ip), vehicle: distilled water + Tween-80): 110 % of control
T/C (dose: 100.0 mg/kg/injection, schedule: Q01DX009 (ip), vehicle: distilled water + Tween-80): 100 % of control
T/C (dose: 200.0 mg/kg/injection, schedule: Q01DX009 (ip), vehicle: distilled water + Tween-80): 95 % of control
T/C (dose: 400.0 mg/kg/injection, schedule: Q01DX009 (ip), vehicle: distilled water + Tween-80): 104 % of control

Cc1ccc(S(=O)(=O)OC2CCCCC2c2ccccc2)cc1 (stereo not given)
T/C (dose: 6.25 mg/kg/injection, schedule: Q01DX001 (ip), vehicle: Klucel (hydroxypropylcellulose) (HPC)): 102 % of control
T/C (dose: 12.5 mg/kg/injection, schedule: Q01DX001 (ip), vehicle: Klucel (hydroxypropylcellulose) (HPC)): 116 % of control and 98 % of control
T/C (dose: 25.0 mg/kg/injection, schedule: Q01DX001 (ip), vehicle: Klucel (hydroxypropylcellulose) (HPC)): 102 % of control and 90 % of control

COc1ccc(/C=C/C(C)=N/NC(N)=S)cc1
T/C (dose: 6.0 mg/kg/injection, schedule: Q01DX005 (ip), vehicle: Klucel + Tween-80): 113 % of control
T/C (dose: 12.0 mg/kg/injection, schedule: Q01DX005 (ip), vehicle: Klucel + Tween-80): 104 % of control

CCCCCCC[n+]1ccccc1C#N
T/C (dose: 12.5 mg/kg/injection, schedule: Q04DX003 (ip), vehicle: saline with Tween-80): 103 % of control and 107 % of control
T/C [10]: 100 % of control and 103 % of control
T/C [11]: 103 % of control
T/C [12]: 100 % of control and 118 % of control
T/C [13]: 99 % of control

COc1ccc(C(=O)CC(C(=O)O)c2ccc(OC)cc2)cc1 (stereo not given)
T/C [12]: 102 % of control
T/C [13]: 94 % of control
T/C [14]: 99 % of control

CC1=NN(c2ccc(S(=O)(=O)O)cc2)C(=O)C1N=Nc1ccc(-c2ccc(N=Nc3ccc(O)c(C(=O)O)c3)c(C)c2)cc1C (stereo not given)
T/C (dose: 6.25 mg/kg/injection, schedule: Q01DX009 (ip), vehicle: saline with Tween-80): 100 % of control and 91 % of control
T/C (dose: 12.5 mg/kg/injection, schedule: Q01DX009 (ip), vehicle: saline with Tween-80): 99 % of control and 106 % of control and 113 % of control
T/C [15]: 100 % of control and 120 % of control and 91 % of control

O=P(Oc1cccc2ccccc12)(N1CC1)N1CC1
T/C (dose: 6.25 mg/kg/injection, schedule: Q01DX009 (ip), vehicle: saline): 90 % of control
T/C (dose: 12.5 mg/kg/injection, schedule: Q01DX009 (ip), vehicle: saline): 95 % of control
T/C (dose: 25.0 mg/kg/injection, schedule: Q01DX009 (ip), vehicle: saline): 100 % of control
T/C [8]: 177 % of control
T/C [9]: 95 % of control

CC(C)(CCC#N)C1NC(C(=O)O)CS1 (stereo not given)
T/C (dose: 50.0 mg/kg/injection, schedule: Q01DX009 (ip), vehicle: saline): 102 % of control
T/C (dose: 100.0 mg/kg/injection, schedule: Q01DX009 (ip), vehicle: saline): 99 % of control
T/C (dose: 200.0 mg/kg/injection, schedule: Q01DX009 (ip), vehicle: saline): 87 % of control

CCOC(=O)c1cc(-c2cc(-c3ccccn3)nnc2-c2ccccn2)c(=O)n(C)c1C
T/C [16]: 102 % of control
T/C [17]: 97 % of control
T/C [18]: 98 % of control

Cc1sc(N=Nc2ccc(N(C)C)cc2)[n+]([O-])c1C
T/C [7]: 111 % of control
T/C (dose: 100.0 mg/kg/injection, schedule: Q01DX009 (ip), vehicle: Klucel (hydroxypropylcellulose) (HPC)): 102 % of control
T/C (dose: 200.0 mg/kg/injection, schedule: Q01DX009 (ip), vehicle: Klucel (hydroxypropylcellulose) (HPC)): 104 % of control

Nc1nc2c(ncn2C2OC(CO)C(O)C2N)c(=O)[nH]1 (stereo not given)
T/C [15]: 106 % of control and 97 % of control
T/C [10]: 103 % of control
T/C (dose: 25.0 mg/kg/injection, schedule: Q04DX003 (ip), vehicle: saline): 101 % of control
T/C [19]: 100 % of control and 107 % of control
T/C [11]: 96 % of control
T/C [20]: 104 % of control
T/C [8]: 106 % of control
T/C [12]: 101 % of control
T/C [21]: 100 % of control and 105 % of control
T/C [9]: 100 % of control
T/C [13]: 104 % of control
T/C [22]: 98 % of control and 108 % of control
T/C [14]: 101 % of control
T/C [23]: 105 % of control and 107 % of control

CSc1ccc2c(=O)c(C(=O)O)c[nH]c2c1
T/C [21]: 108 % of control
T/C [22]: 99 % of control
T/C [23]: 107 % of control

CCC(c1ccc(OC)cc1)c1cc2c(cc1OC)OCO2 (stereo not given)
T/C [24]: 97 % of control
T/C [25]: 106 % of control
T/C [26]: 113 % of control

Cc1ccc(SC(=O)c2cccnc2Oc2ccccc2)cc1
T/C [24]: 90 % of control
T/C [25]: 99 % of control
T/C [26]: 96 % of control

CCOC(=O)C(CC(C)C)NC(C)=O (stereo not given)
T/C [16]: 100 % of control
T/C [17]: 105 % of control
T/C [18]: 114 % of control

COc1cc2c(cc1OC(C)=O)C(=O)CCC=C2
T/C (dose: 33.0 mg/kg/injection, schedule: Q04DX003 (ip), vehicle: saline): 100 % of control
T/C [20]: 104 % of control
T/C (dose: 75.0 mg/kg/injection, schedule: Q04DX003 (ip), vehicle: saline): 112 % of control
T/C [23]: 120 % of control

O=c1c(N=Nc2ccc(S(=O)(=O)Nc3nccs3)cc2)c(O)n(-c2ccccc2)n1-c1ccccc1
T/C [5]: 88 % of control
T/C [6]: 87 % of control and 93 % of control
T/C [7]: 90 % of control and 91 % of control and 92 % of control

Cc1cc(NC(=O)c2ccc(N)cc2)ccc1N=Nc1ccc2c(O)c(N=Nc3ccc(S(=O)(=O)O)cc3C)c(S(=O)(=O)O)cc2c1
T/C [3]: 100 % of control
T/C [4]: 90 % of control

CNC(=O)Nc1nnnc2ccccc12
T/C [10]: 90 % of control
T/C [11]: 100 % of control
T/C [12]: 100 % of control

CC(O)COCCOCCO (stereo not given)
T/C [21]: 100 % of control
T/C [22]: 100 % of control
T/C [23]: 104 % of control

Cn1c(=O)c2c(CCCC(=O)O)onc2n(C)c1=O
T/C [15]: 96 % of control
T/C [19]: 93 % of control
T/C [8]: 90 % of control

CC1CN=C(c2ccc(NC(=O)Nc3ccc(C4=NCC(C)N4)cc3)cc2)N1 (stereo not given)
T/C (dose: 0.4 mg/kg/injection, schedule: Q01DX005 (ip), vehicle: saline with Tween-80): 106 % of control
T/C (dose: 0.78 mg/kg/injection, schedule: Q01DX005 (ip), vehicle: saline with Tween-80): 104 % of control
T/C (dose: 1.56 mg/kg/injection, schedule: Q01DX005 (ip), vehicle: saline with Tween-80): 117 % of control and 118 % of control
T/C (dose: 3.13 mg/kg/injection, schedule: Q01DX005 (ip), vehicle: saline with Tween-80): 117 % of control
T/C (dose: 6.25 mg/kg/injection, schedule: Q01DX005 (ip), vehicle: saline with Tween-80): 110 % of control

C[N+](C)=NC1CCC(C(C)(C)C)CC1 (stereo not given)
T/C (dose: 12.5 mg/kg/injection, schedule: Q01DX005 (ip), vehicle: saline with Tween-80): 99 % of control
T/C (dose: 25.0 mg/kg/injection, schedule: Q01DX005 (ip), vehicle: saline with Tween-80): 99 % of control
T/C [3]: 100 % of control
